Here are results for eleven compounds from ChEMBL document CHEMBL1201862, “PubChem BioAssay data set” (2004).

What all share (assay): NCI anticancer screen, dose series, 48 h
Experiment [1] has as its system EKVX.
Experiment [2] relates to OVCAR-4.
The subject of experiment [3] is HL-60.
Experiment [4] concerns UO-31.
Experiment [5] deals with MOLT-4.
In experiment [6] the test system is COLO 205.
The subject of experiment [7] is OVCAR-3.
For experiment [8], the system named is UACC-62.
In experiment [9] the test system is CCRF-CEM.
Experiment [10] concerns HCT-15.
Experiment [11] concerns MDA-MB-435.
The test system of experiment [12] is BT-549.
In experiment [13] the test system is SR.
In experiment [14] the test system is MDA-N.
Experiment [15] deals with SF-539.
Experiment [16] relates to NCI/ADR-RES.
For experiment [17], the system named is Malme-3M.
Experiment [18] has as its system SF-268.
The test system of experiment [19] is SNB-19.

Each structure is given as a SMILES string.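 48-hour exposure; five concentrations; linearly interpolated endpoints. GI50 = concentration required for 50% inhibition of growth.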 Active and inactive are the calls of the source. Rule as the data show it: active = GI50 up to about 1.1 µM and inactive = higher.

Turning to `CN(C)c1nncc2[nH]nnc12`, the GI50 in experiment [1], in experiment [2], in experiment [3], in [4], in experiment [5] and in experiment [6] was > 100 µM (inactive) in each case. The GI50 in experiment [7] is > 100 µM (inactive); in experiment [8], > 100 µM (inactive); in experiment [9], > 100 µM (inactive); in experiment [10], above 100 µM; in [11], > 100 µM (inactive); in [12] it was > 100 µM (inactive). The GI50 in [13] was > 100 µM (inactive); in [14] it was > 100 µM (inactive); in experiment [15], > 100 µM (inactive); in experiment [16], > 100 µM (inactive); in [17], 92.3 µM (inactive).
Take `CN(C)CCN(/C(=N/c1ccccc1)N1CCCC1)c1ccccc1`: the GI50 was > 100 µM (inactive) in experiment [18]; > 100 µM (inactive) in [1]; 49.5 µM (inactive) in experiment [2]; 11.6 µM (inactive) in [3]; 21.9 µM (inactive) in [4]; 4.92 µM (inactive) in [5]. For the same compound, the GI50 in experiment [6] was 16.9 µM (inactive); in experiment [7], 37.3 µM (inactive); in experiment [8], 11.9 µM (inactive); in [9] it was 8.69 µM (inactive); in experiment [10] it was 26.8 µM; in experiment [11], 15.5 µM (inactive). For the same compound, the GI50 in experiment [19] is > 100 µM (inactive); in experiment [12], > 100 µM (inactive); in experiment [13], 31.8 µM (inactive); in experiment [14], 4.1 µM (inactive); in experiment [16], 42.3 µM (inactive); in [17], > 100 µM (inactive).
Turning to `CSC(=S)N/N=C/c1ccccc1`, the GI50 was 40.1 µM (inactive) in [18]; 24.4 µM (inactive) in experiment [1]; 24.3 µM (inactive) in experiment [2]; 36 µM (inactive) in experiment [3]; 34.7 µM (inactive) in experiment [4]; 31.5 µM (inactive) in experiment [6]. In addition, the GI50 was 42 µM (inactive) in experiment [7]; 37.4 µM (inactive) in [8]; 26 µM (inactive) in [9]; 34.4 µM in [10]; 47.4 µM (inactive) in [11]; 53.7 µM (inactive) in [19]. Moreover, the GI50 in experiment [12] is 46.3 µM (inactive); in experiment [13] it was 40.8 µM (inactive); in [14], 41.9 µM (inactive); in experiment [15], 56.6 µM (inactive); in [16] it was 25.4 µM (inactive); in experiment [17], 36.5 µM (inactive).
For `COc1cc(-c2c[nH]c3ccccc23)nc(-c2c[nH]c3ccccc23)n1`, the GI50 was 14.7 µM (inactive) in experiment [18]; 5.56 µM (inactive) in experiment [1]; 8.81 µM (inactive) in experiment [2]; 3.43 µM (inactive) in [3]; 5.53 µM (inactive) in experiment [4]; 2.9 µM (inactive) in experiment [5]. Moreover, the GI50 in experiment [6] was 8.32 µM (inactive); in experiment [7], 6.71 µM (inactive); in experiment [8], 6.18 µM (inactive); in [9], 1.13 µM (inactive); in [10], 5.61 µM; in experiment [11] it was 5.77 µM (inactive). Also, the GI50 in experiment [19] is 5.26 µM (inactive); in experiment [12], 15.9 µM (inactive); in [13], 9.53 µM (inactive); in experiment [14] it was 4.05 µM (inactive); in [15], 7.14 µM (inactive); in experiment [16], 8.87 µM (inactive).
`COc1ccc(N2C(=O)/C(=C/c3ccc(N(CCC#N)CCC#N)cc3)N=C2c2ccccc2)cc1`: the GI50 in [18], in [1], in experiment [2], in experiment [3], in [4] and in [5] was > 100 µM (inactive) each time. Also, the GI50 in experiment [6] was > 100 µM (inactive); in [7], > 100 µM (inactive); in experiment [8] it was > 100 µM (inactive); in experiment [10], above 100 µM; in [11] it was > 100 µM (inactive); in experiment [19], > 100 µM (inactive). The GI50 in experiment [12], in experiment [13], in experiment [14], in [15], in experiment [16] and in experiment [17] was > 100 µM (inactive) throughout.
Regarding `COc1ccc(/C=C2\Oc3cc(OC(C)=O)ccc3C2=O)cc1`, the GI50 in [18] is > 100 µM (inactive); in experiment [1], > 100 µM (inactive); in [2] it was > 100 µM (inactive); in experiment [3], 94 µM (inactive); in experiment [4] it was > 100 µM (inactive); in experiment [5], > 100 µM (inactive). The GI50 in experiment [6] was > 100 µM (inactive); in experiment [7], > 100 µM (inactive); in [8], > 100 µM (inactive); in experiment [9], 73.6 µM (inactive); in experiment [10], 94.4 µM; in experiment [11], > 100 µM (inactive). Besides, the GI50 in [19] is > 100 µM (inactive); in [12], > 100 µM (inactive); in experiment [13], 60.8 µM (inactive); in experiment [14] it was 76.2 µM (inactive); in experiment [15], > 100 µM (inactive); in experiment [16], > 100 µM (inactive).
Consider `COC(=O)C(CCC1CC(OC)N(C(=O)OCc2ccccc2)C1)/N=C/c1ccccc1` (stereo not given), for which the GI50 in experiment [18] was > 100 µM (inactive); in experiment [1], 55.2 µM (inactive); in experiment [2], 62.1 µM (inactive); in experiment [3] it was 47.8 µM (inactive); in [4], 91.6 µM (inactive); in experiment [5] it was 30.1 µM (inactive). For the same compound, the GI50 in [6] was 29.3 µM (inactive); in experiment [7] it was 36.1 µM (inactive); in experiment [8], 84.1 µM (inactive); in experiment [9] it was 41.9 µM (inactive); in experiment [10], above 100 µM; in [11] it was 53.8 µM (inactive). The GI50 in experiment [19] was > 100 µM (inactive); in experiment [12], > 100 µM (inactive); in experiment [13] it was 30.5 µM (inactive); in [14] it was 48 µM (inactive); in experiment [15], > 100 µM (inactive); in experiment [16] it was > 100 µM (inactive).
As for `NC1C/C(=N\O)c2c(Cl)sc(Cl)c21` (stereo not given), the GI50 in experiment [18] was 29.4 µM (inactive); in experiment [1] it was 18.5 µM (inactive); in [2], 17.3 µM (inactive); in experiment [3], 21.4 µM (inactive); in [4], 17.4 µM (inactive); in [5], 9.73 µM (inactive). Moreover, the GI50 is 25.4 µM (inactive) in [6]; 17.3 µM (inactive) in [7]; 3.17 µM (inactive) in experiment [9]; 15.6 µM in experiment [10]; 15.6 µM (inactive) in experiment [11]; 31.3 µM (inactive) in [19]. Besides, the GI50 in experiment [12] was 18.5 µM (inactive); in [13] it was 20.1 µM (inactive); in [14] it was 18 µM (inactive); in experiment [15], 8.95 µM (inactive); in experiment [16], 25.6 µM (inactive); in [17], 19.5 µM (inactive).
`O=c1[nH]c2ccc(C(F)(F)F)cc2nc1-c1ccccc1`: the GI50 in experiment [18], in [1], in experiment [3], in [5], in [6] and in experiment [7] was > 100 µM (inactive) each time. Moreover, the GI50 in experiment [8] was > 100 µM (inactive); in experiment [9] it was > 100 µM (inactive); in experiment [10] it was above 100 µM; in experiment [11], > 100 µM (inactive); in experiment [19], > 100 µM (inactive); in experiment [12], > 100 µM (inactive). Also, the GI50 in [13] was 88.3 µM (inactive); in experiment [14], > 100 µM (inactive); in experiment [15], > 100 µM (inactive); in [16] it was > 100 µM (inactive); in experiment [17], > 100 µM (inactive).
With `N=C(N)C1CN(CCCCCCCCCCN2CC(C(=N)N)C(O)=NC2=O)C(=O)N=C1O` (stereo not given), the GI50 in [1], in experiment [2], in experiment [3], in experiment [5], in [6] and in experiment [7] was > 10 µM (inactive) throughout. In addition, the GI50 in [8] was > 10 µM (inactive); in experiment [9], > 10 µM (inactive); in experiment [10], above 10 µM; in experiment [11], > 10 µM (inactive); in [19], > 10 µM (inactive); in [12] it was > 10 µM (inactive). Also, the GI50 in experiment [13], in [14], in [15], in experiment [16] and in experiment [17] was > 10 µM (inactive) each time.
`N/C(=N\c1ccc(Cl)cc1)c1ccccc1N`: the GI50 in experiment [18], in experiment [1], in [2], in experiment [3], in [4] and in [5] was > 100 µM (inactive) in each case. The GI50 in [6] is > 100 µM (inactive); in experiment [7], > 100 µM (inactive); in [8], > 100 µM (inactive); in [9] it was > 100 µM (inactive); in [10], above 100 µM; in experiment [11], > 100 µM (inactive). In addition, the GI50 in experiment [19], in experiment [12], in [13], in [14], in experiment [16] and in experiment [17] was > 100 µM (inactive) in each case.
